Experimental data as given in EP4692094A1 (Beijing Konruns Pharmaceutical Co., Ltd., priority 2023, dated 2024).

biological target: T1, CYP2C8 (Homo sapiens, UniProt P10632); experiment: Inhibitory effect on P450 enzymes in vitro (human liver microsomes), CYP2C8; type: in vitro ADME; details: probe paclitaxel, final concentration 10 µM, substrate paclitaxel, read-out: % inhibition rate CYP2C8 (paclitaxel)
T1 construct: from tissue; host or cells: human liver microsomes
T1 sequence (P10632 1-490): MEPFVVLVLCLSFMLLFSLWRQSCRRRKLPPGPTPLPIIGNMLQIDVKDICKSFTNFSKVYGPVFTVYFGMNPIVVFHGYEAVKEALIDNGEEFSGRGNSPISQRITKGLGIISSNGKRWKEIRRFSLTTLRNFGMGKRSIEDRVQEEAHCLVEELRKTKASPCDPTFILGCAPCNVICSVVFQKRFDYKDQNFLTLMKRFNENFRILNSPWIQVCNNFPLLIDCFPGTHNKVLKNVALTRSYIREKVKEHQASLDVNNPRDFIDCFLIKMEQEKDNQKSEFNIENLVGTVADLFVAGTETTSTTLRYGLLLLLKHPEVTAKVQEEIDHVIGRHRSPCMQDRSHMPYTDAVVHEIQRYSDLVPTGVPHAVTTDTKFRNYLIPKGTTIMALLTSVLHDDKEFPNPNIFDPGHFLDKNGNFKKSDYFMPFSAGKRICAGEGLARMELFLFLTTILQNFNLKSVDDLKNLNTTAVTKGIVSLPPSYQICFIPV
Description: 1.1 Preparation of compounds: The compounds prepared in the examples were each dissolved in dimethylsulfoxide to give solutions at a concentration of 2 mmol/L.
1.2 Test methods: • 1) Incubation system: human liver microsomes, a MgCl2 solution, a phosphate buffer solution, and a substrate solution were each added a 96-well deep-well plate and mixed homogenously. In the final incubation system, the concentration of the human liver microsomes was 0.2 mg/mL, and the final concentrations of the MgCl2 solution and the phosphate buffer solution were 5 mM and 100 mM, respectively. • 2) 1 µL of the substrate solution was added to the incubation system, and the final concentrations of CYP1A2 phenacetin, 2C8 paclitaxel […], 2C19 mephenytoin, 2D6 midazolam, and 3A midazolam substrates were 40 µM (phenacetin), 5 µM (paclitaxel), 50 µM (mephenytoin), 10 µM (mephenytoin), 5 µM (midazolam), and 50 µM […], respectively. • 3) 1 µL of the example compound or vehicle (DMSO) was added to the incubation system, and the incubation system was pre-warmed for 5 min in a 37 °C water bath before starting the reaction with 20 µL of 10 mM NADPH solution.
1.3 Sample treatment: Within the designated time (20 min for phenacetin, 10 min for paclitaxel, 20 min for mephenytoin, 20 min for dextromethorphan, 5 min for midazolam, and 10 min for testosterone), 400 µL of methanol containing the internal standard was added to terminate the reaction, and the mixture was vortexed and mixed homogeneously. Then, the deep-well plate was centrifuged at 3220 g and 4 °C for 40 min. 100 µL of the supernatant was transferred into a new plate, and 150 µL of purified water was added. The mixture was mixed homogenously for LC-MS/MS analysis. Table 11. Inhibitory effects of some compounds in the examples on CYP enzymes

Compared with `COc1cc2c(cc1S(=O)(=O)Nc1noc3cc(Cn4cccn4)nc(OC)c13)OCC2` [Example 59, N-(6-((1H-Pyrazol-1-yl)methyl)-4-methoxyisoxazolo[4,5-c]pyridin-3-yl)-5-methoxy-2,3-dihydrobenzofuran-6-sulfonamide], `COc1cc2c(cc1S(=O)(=O)Nc1noc3cc(Cn4cccn4)nc(OC)c13)CCCC2` [Example 2, N-(6-((1H-Pyrazol-1-yl)methyl)-4-methoxyisoxazolo[4,5-c]pyridin-3-yl)-3-methoxy-5,6,7,8-tetrahydronaphthalene-2-sulfonamide] is higher in inhibition at 10 min, 10 µM: 2.08% for the first, 16.4% for the second.

Compound `COc1ccc2ccoc2c1S(=O)(=O)Nc1noc2cc(Cn3cccn3)nc(OC)c12` [Example 10, N-(6-((1H-Pyrazol-1-yl)methyl)-4-methoxyisoxazolo[4,5-c]pyridin-3-yl)-6-methoxybenzofuran-7-sulfonamide] has an inhibition at 10 min, 10 µM of 3.71%.
